# Data taken from PubChem BioAssay (NCI).
#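 How tested: cells in 96-well plates exposed to compound for 48 hours at five concentrations. The concentration for 50% growth inhibition is given as GI50. Definition used: TGI = concentration required for complete inhibition of growth.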
# What was measured:
# Assay in all cases: inhibition of tumour cell growth, NCI panel, 48 h
# DU-145 prostate = tested on: DU-145 prostate
# CCRF-CEM leukemia = tested on: CCRF-CEM leukemia
# HOP-92 NSCLC = tested on: HOP-92 NSCLC
# IGROV1 ovarian = tested on: IGROV1 ovarian
# MDA-MB-231 breast = tested on: MDA-MB-231 breast
# KM12 colon = tested on: KM12 colon
# NCI-H23 lung = tested on: NCI-H23 lung
# PC-3 prostate = tested on: PC-3 prostate
# NCI-H226 lung = tested on: NCI-H226 lung
# A498 renal = tested on: A498 renal
# OVCAR-3 ovarian = tested on: OVCAR-3 ovarian
# 786-0 renal = tested on: 786-0 renal
# M14 melanoma = tested on: M14 melanoma
# LOX IMVI melanoma = tested on: LOX IMVI melanoma
# SK-MEL-5 melanoma = tested on: SK-MEL-5 melanoma
# SF-268 CNS = tested on: SF-268 CNS
# MOLT-4 leukemia = tested on: MOLT-4 leukemia
# T-47D breast = tested on: T-47D breast
# MCF7 breast = tested on: MCF7 breast
# MDA-MB-435 = tested on: MDA-MB-435
# SF-295 CNS = tested on: SF-295 CNS
# SW-620 colon = tested on: SW-620 colon
# SNB-75 CNS = tested on: SNB-75 CNS
# SF-539 CNS = tested on: SF-539 CNS
# UACC-257 melanoma = tested on: UACC-257 melanoma
# SK-OV-3 ovarian = tested on: SK-OV-3 ovarian
# HCT-116 colon = tested on: HCT-116 colon
# CAKI-1 renal = tested on: CAKI-1 renal
# RPMI-8226 leukemia = tested on: RPMI-8226 leukemia
# RXF 393 renal = tested on: RXF 393 renal
# MALME-3M melanoma = tested on: MALME-3M melanoma
# OVCAR-8 ovarian = tested on: OVCAR-8 ovarian
# ACHN renal = tested on: ACHN renal
# NCI-H522 lung = tested on: NCI-H522 lung
# MDA-MB-468 breast = tested on: MDA-MB-468 breast
# OVCAR-5 ovarian = tested on: OVCAR-5 ovarian
# HCC-2998 colon = tested on: HCC-2998 colon
# UACC-62 melanoma = tested on: UACC-62 melanoma
# OVCAR-4 ovarian = tested on: OVCAR-4 ovarian
# COLO 205 colon = tested on: COLO 205 colon
# SN12C renal = tested on: SN12C renal
# SK-MEL-28 melanoma = tested on: SK-MEL-28 melanoma
# SK-MEL-2 melanoma = tested on: SK-MEL-2 melanoma
# U251 CNS = tested on: U251 CNS
# BT-549 breast = tested on: BT-549 breast
# HL-60(TB) leukemia = tested on: HL-60(TB) leukemia
# SNB-19 CNS = tested on: SNB-19 CNS
# HT29 colon = tested on: HT29 colon
# HOP-62 NSCLC = tested on: HOP-62 NSCLC
# UO-31 renal = tested on: UO-31 renal
# EKVX NSCLC = tested on: EKVX NSCLC
# NCI-H460 lung = tested on: NCI-H460 lung
# HS 578T breast = tested on: HS 578T breast
# SR leukemia = tested on: SR leukemia
# TK-10 renal = tested on: TK-10 renal
# A549 NSCLC = tested on: A549 NSCLC
# K-562 leukemia = tested on: K-562 leukemia
# HCT-15 colon = tested on: HCT-15 colon
smiles,measurement,setting,value
CC1=C(C(=O)Nc2ccccc2)C(c2ccc3ccccc3c2)n2c(nc3ccccc32)N1 (stereo unspecified),GI50,DU-145 prostate,18.2 µM
same,TGI,DU-145 prostate,62.3 µM
same,GI50,CCRF-CEM leukemia,8.63 µM
same,TGI,CCRF-CEM leukemia,> 100 µM
same,GI50,HOP-92 NSCLC,15.3 µM
same,TGI,HOP-92 NSCLC,36.5 µM
same,GI50,IGROV1 ovarian,25.8 µM
same,TGI,IGROV1 ovarian,85.7 µM
same,GI50,MDA-MB-231 breast,20.4 µM
same,TGI,MDA-MB-231 breast,41.5 µM
same,GI50,KM12 colon,31.9 µM
same,TGI,KM12 colon,> 100 µM
same,GI50,NCI-H23 lung,27.7 µM
same,TGI,NCI-H23 lung,> 100 µM
same,GI50,PC-3 prostate,12.4 µM
same,TGI,PC-3 prostate,31.4 µM
same,GI50,NCI-H226 lung,12.9 µM
same,TGI,NCI-H226 lung,34.8 µM
same,GI50,A498 renal,23.3 µM
same,TGI,A498 renal,63.3 µM
same,GI50,OVCAR-3 ovarian,16.4 µM
same,TGI,OVCAR-3 ovarian,31.9 µM
same,GI50,786-0 renal,19.6 µM
same,TGI,786-0 renal,38.6 µM
same,GI50,M14 melanoma,33.4 µM
same,TGI,M14 melanoma,> 100 µM
same,GI50,LOX IMVI melanoma,14.3 µM
same,TGI,LOX IMVI melanoma,31 µM
same,GI50,SK-MEL-5 melanoma,58.6 µM
same,TGI,SK-MEL-5 melanoma,> 100 µM
same,GI50,SF-268 CNS,27.3 µM
same,TGI,SF-268 CNS,> 100 µM
same,GI50,MOLT-4 leukemia,5.71 µM
same,TGI,MOLT-4 leukemia,72 µM
same,GI50,T-47D breast,58.5 µM
same,TGI,T-47D breast,> 100 µM
same,GI50,MCF7 breast,9.12 µM
same,TGI,MCF7 breast,27.7 µM
same,GI50,MDA-MB-435,41.6 µM
same,TGI,MDA-MB-435,> 100 µM
same,GI50,SF-295 CNS,17 µM
same,TGI,SF-295 CNS,37.6 µM
same,GI50,SW-620 colon,22.3 µM
same,TGI,SW-620 colon,> 100 µM
same,GI50,SNB-75 CNS,10.4 µM
same,TGI,SNB-75 CNS,30.5 µM
same,GI50,SF-539 CNS,15.5 µM
same,TGI,SF-539 CNS,30.4 µM
same,GI50,UACC-257 melanoma,67.1 µM
same,TGI,UACC-257 melanoma,> 100 µM
same,GI50,SK-OV-3 ovarian,21.5 µM
same,TGI,SK-OV-3 ovarian,85.7 µM
same,GI50,HCT-116 colon,13.4 µM
same,TGI,HCT-116 colon,33.1 µM
same,GI50,CAKI-1 renal,19.2 µM
same,TGI,CAKI-1 renal,56.3 µM
same,GI50,RPMI-8226 leukemia,20 µM
same,TGI,RPMI-8226 leukemia,> 100 µM
same,GI50,RXF 393 renal,11.8 µM
same,TGI,RXF 393 renal,40.5 µM
same,GI50,MALME-3M melanoma,18.3 µM
same,TGI,MALME-3M melanoma,40.3 µM
same,GI50,OVCAR-8 ovarian,16.9 µM
same,TGI,OVCAR-8 ovarian,35.9 µM
same,GI50,ACHN renal,17 µM
same,TGI,ACHN renal,35.3 µM
same,GI50,NCI-H522 lung,18.1 µM
same,TGI,NCI-H522 lung,45.7 µM
same,GI50,MDA-MB-468 breast,14.1 µM
same,TGI,MDA-MB-468 breast,35.1 µM
same,GI50,OVCAR-5 ovarian,28 µM
same,TGI,OVCAR-5 ovarian,95.6 µM
same,GI50,HCC-2998 colon,34 µM
same,TGI,HCC-2998 colon,> 100 µM
same,GI50,UACC-62 melanoma,20.3 µM
same,TGI,UACC-62 melanoma,63.5 µM
same,GI50,OVCAR-4 ovarian,15.4 µM
same,TGI,OVCAR-4 ovarian,45.3 µM
same,GI50,COLO 205 colon,26.5 µM
same,TGI,COLO 205 colon,> 100 µM
same,GI50,SN12C renal,17.1 µM
same,TGI,SN12C renal,40.2 µM
same,GI50,SK-MEL-28 melanoma,21.2 µM
same,TGI,SK-MEL-28 melanoma,56.4 µM
same,GI50,SK-MEL-2 melanoma,22.1 µM
same,TGI,SK-MEL-2 melanoma,71.5 µM
same,GI50,U251 CNS,16.3 µM
same,TGI,U251 CNS,32.5 µM
same,GI50,BT-549 breast,28 µM
same,TGI,BT-549 breast,> 100 µM
same,GI50,HL-60(TB) leukemia,13.7 µM
same,TGI,HL-60(TB) leukemia,> 100 µM
same,GI50,SNB-19 CNS,22.7 µM
same,TGI,SNB-19 CNS,59.2 µM
same,GI50,HT29 colon,24.4 µM
same,TGI,HT29 colon,69.2 µM
same,GI50,HOP-62 NSCLC,15.4 µM
same,TGI,HOP-62 NSCLC,31.6 µM
same,GI50,UO-31 renal,12.6 µM
same,TGI,UO-31 renal,39.9 µM
same,GI50,EKVX NSCLC,16 µM
same,TGI,EKVX NSCLC,46.2 µM
same,GI50,NCI-H460 lung,15 µM
same,TGI,NCI-H460 lung,33.6 µM
same,GI50,HS 578T breast,15.6 µM
same,TGI,HS 578T breast,57.2 µM
same,GI50,SR leukemia,22 µM
same,TGI,SR leukemia,> 100 µM
same,GI50,TK-10 renal,19.3 µM
same,TGI,TK-10 renal,48.6 µM
same,GI50,A549 NSCLC,13.5 µM
same,TGI,A549 NSCLC,33.2 µM
same,GI50,K-562 leukemia,7.06 µM
same,TGI,K-562 leukemia,> 100 µM
same,GI50,HCT-15 colon,16.4 µM
same,TGI,HCT-15 colon,56.2 µM
